The text below walks through data of publication PMC10115881, “Disrupting the α-synuclein-ESCRT interaction with a peptide inhibitor mitigates neurodegeneration in preclinical models of Parkinson’s disease” (Nature Communications, 2023).

The subject of experiment [1] is A53T a-syn expressing HEK293 cells. The experiment is described as follows: Cell viability with CHMP2B or VPS4 shRNA knockdown, A53T a-syn cells. The format is cell-based, human. Also on record: Knockdown effect on cell viability: scale not given here. An excerpt: Fig. 1 Proteomic screens and in vitro validation of hits. A Schematic of the experimental design including proteomic screens, identification and validation of hits, target deconvolution, and evaluation in cell and animal models (created using Servier Medical Art at https://smart.servier.com/). For the cytotoxicity screen, we employed our peptide library to identify peptides that rescue cytotoxicity induced by a-syn overexpression and proteostatic stress (due to MG132 administration). To screen our library for peptides that inhibit a-syn oligomers, we used FACS with a split YFP-a-syn system (cells co-expressing V1S and SV2). B Validation of cell viability effect of peptides in A53T and WT a-syn expressing cells under proteostatic stress as well as controls. MG132 was used at a concentration of 10 μM. Experiments were done in triplicate. Data represent means ± s.d. (unpaired two-tailed t-tests; A53T PDpep1, P = 0.0051; A53T PDpep1.1, P = 0.0002; A53T PDpep1.2, P = 0.0035; A53T PDpep1.3, P < 0.0001; WT a-syn PDpep1.3, P = 0.0008; n = 3). C WT a-syn oligomers as measured by luciferase activity. […] Experiments were done in triplicate. Data represent means ± s.d. (unpaired two-tailed t-tests; PDpep1, P = 0.0008; PDpep1.1, PDpep1.2, PDpep1.3, P < 0.0001; n = 3). D Co-immunoprecipitation experiment with Flag-CHMP2B and GFP-peptides (n = 3). […] E Fluorescence polarization (FP) binding assay of a FITC-labeled PDpep1.3 peptide against CHMP2B. Error bars represent ± s.d. of the fit (n = 5). F Knockdown of CHMP2B or VPS4 in A53T a-syn expressing cells under proteostatic stress. Cell viabilities were measured with cells stably expressing different shRNAs and transfected with Scramble or PDpep1.3 peptide. Experiments were done in triplicate. Data represent means ± s.d. (unpaired two-tailed t-tests; PDpep1.3, P = 0.0005; n = 3). **P < 0.01; ***P < 0.001; ****P < 0.0001. Source data are provided as a Source Data file.
Cells were trypsinized from subconfluent cultures as described earlier, suspended in culture media, and then seeded into triplicate wells of a 96-well plate (100 µl/well) at a density of 1.5 × 10^4 cells per well with standard culture conditions of 5% CO2 at 37 °C. Cells were infected with lentivirus expressing peptide at a MOI of 5 for 72 h or transfected with plasmid for 72 h. Cell Titer-Glo reagent was added to each well (30 µL), according to the manufacturer’s protocol and […].

The test system of experiment [2] is LAMP1 in iPSC-derived dopaminergic neurons. The experiment is described as follows: LAMP1 fluorescence in iPSC-derived dopaminergic neurons. The format is cell-based, human. As to conditions: A53T a-syn iPSC-derived dopaminergic neurons. On the procedure: A53T a-syn iCell Dopa neurons (catalog #R1109) and isogenic control iCell Dopa neurons (catalog #R1088) were purchased from Fujifilm Cellular Dynamics (Madison, WI, USA) and cultured as per the manufacturer’s instructions. Briefly, cells were plated in complete maintenance medium provided by the manufacturer on poly-L-ornithine/laminin coated μ plates (ibidi). Cells recovered from thawing for 24 h and then were transduced with AAV-Scramble1.3-RFP or AAV-PDpep1.3-RFP at MOI of 3000 for 48 h at which time media was completely changed. Cells were fixed using 4% PFA at 7 days post-plating.
Confocal images of immunofluorescent staining were acquired with a Zeiss LSM880 confocal microscope equipped with 405, 488, 555, and 639 nm laser lines. All images were taken within the linear range at constant gain and pinhole settings at optimal resolution settings determined by the software. […]
Confocal images of primary cortical neurons, iPSC-derived dopaminergic neurons, and LAMP1 staining within the SN were processed using Imaris software (Oxford instruments). […] Mean pixel intensity per GFP^+ cell (for experiments using GFP-tagged peptides) or RFP^+ cell (for experiments using RFP-tagged peptides) was calculated for a-syn or LAMP1 signal using the software’s surfaces module. […]

For the sequence DEEIERQLKALG [PDpep1.3], the “Knockdown effect on cell viability” value was determined as 1.187 in experiment [1] (CHMP2B shRNA, replicate 1); 1.181 in experiment [1] (CHMP2B shRNA, replicate 2); 1.121 in experiment [1] (CHMP2B shRNA, replicate 3); 1.473 in experiment [1] (No shRNA, replicate 1); 1.4504 in experiment [1] (No shRNA, replicate 2); 1.525 in experiment [1] (No shRNA, replicate 3). Moreover, the “Knockdown effect on cell viability” value in experiment [1] (VPS4A shRNA, replicate 1) was determined as 1.3172; in experiment [1] (VPS4A shRNA, replicate 2), 1.331; in experiment [1] (VPS4A shRNA, replicate 3) it was 1.421; in experiment [1] (VPS4A/B shRNA, replicate 1), 1.464; in experiment [1] (VPS4A/B shRNA, replicate 2) it was 1.542; in experiment [1] (VPS4A/B shRNA, replicate 3), 1.564. Besides, the “Knockdown effect on cell viability” value in experiment [1] (VPS4B shRNA, replicate 1) stood at 1.302; in experiment [1] (VPS4B shRNA, replicate 2) it was 1.395; in experiment [1] (VPS4B shRNA, replicate 3) it was 1.343. The “Cytoprotective effect under knockdown” value in experiment [1] (shRNA CHMP2B or VPS4A and/or VPS4B) is reported as “prevented by CHMP2B knockdown, but not by knockdown of VPS4A and/or VPS4B”. Further, the “Effect on LAMP1 levels, iPSC neurons” value in experiment [2] is reported as “LAMP1 levels to those of isogenic controls”.
